Experiment: mn = molality of the nth substance listed, in mol/kg
Settings: 298.15 K, Liquid

Nc1nc(O)c2ncn([C@H]3C[C@H](O)[C@@H](CO)O3)c2n1 [2'-deoxyguanosine] + O
speed of sound [m/s]
Settings	100 kPa	10000 kPa	20000 kPa	40000 kPa	60000 kPa	80000 kPa	100000 kPa
m1 = 0.009827	1497.4	–	–	–	–	–	–
m1 = 0.01011	1497.4	–	–	–	–	–	–
m1 = 0.01028	1497.4	–	–	–	–	–	–
m1 = 0.0103	1497.4	1514	1530.8	1564.4	1597.9	1631.3	1664.4
m1 = 0.01036	–	–	1530.8	1564.4	1597.9	1631.3	1664.4
m1 = 0.01043	–	1514	1530.8	1564.4	1597.9	1631.3	1664.4
m1 = 0.01048	1497.4	1514	1530.8	1564.4	1597.9	1631.3	1664.4
m1 = 0.01051	1497.4	–	–	–	–	–	–
m1 = 0.01057	1497.4	–	–	–	–	–	–
m1 = 0.01059	–	1514.1	1530.9	–	1597.9	1631.3	1664.5
m1 = 0.01062	–	1514.1	1530.9	1564.4	1597.9	1631.3	1664.5
m1 = 0.01068	–	1514.1	1530.9	–	1597.9	1631.3	1664.5
m1 = 0.0107	1497.5	–	–	–	–	–	–
m1 = 0.01075	–	1514.1	1530.9	1564.4	1597.9	1631.3	1664.5

O=c1[nH]cnc2c1ncn2[C@H]1C[C@H](O)[C@@H](CO)O1 [2'-deoxyinosine] + O
Settings	speed of sound [m/s]
100 kPa, m1 = 0.02199	1498.1
100 kPa, m1 = 0.02301	1498.2
100 kPa, m1 = 0.024	1498.3
100 kPa, m1 = 0.02493	1498.3
100 kPa, m1 = 0.02599	1498.4
100 kPa, m1 = 0.02701	1498.5
100 kPa, m1 = 0.02813	1498.6
100 kPa, m1 = 0.02896	1498.6
100 kPa, m1 = 0.02994	1498.7
10000 kPa, m1 = 0.02283	1514.8
10000 kPa, m1 = 0.0239	1514.9
10000 kPa, m1 = 0.02481	1514.9
10000 kPa, m1 = 0.02661	1515
10000 kPa, m1 = 0.02749	1515.1
10000 kPa, m1 = 0.02755	1515.1
10000 kPa, m1 = 0.02877	1515.2
10000 kPa, m1 = 0.02944	1515.2
20000 kPa, m1 = 0.02283	1531.6
20000 kPa, m1 = 0.0239	1531.7
20000 kPa, m1 = 0.02481	1531.7
20000 kPa, m1 = 0.02661	1531.9
20000 kPa, m1 = 0.02749	1531.9
20000 kPa, m1 = 0.02755	1531.9
20000 kPa, m1 = 0.02877	1532
20000 kPa, m1 = 0.02944	1532
40000 kPa, m1 = 0.02283	1565.2
40000 kPa, m1 = 0.0239	1565.3
40000 kPa, m1 = 0.02481	1565.3
40000 kPa, m1 = 0.02661	1565.5
40000 kPa, m1 = 0.02749	1565.5
40000 kPa, m1 = 0.02755	1565.5
40000 kPa, m1 = 0.02877	1565.6
40000 kPa, m1 = 0.02944	1565.6
60000 kPa, m1 = 0.02283	1598.7
60000 kPa, m1 = 0.0239	1598.8
60000 kPa, m1 = 0.02481	1598.9
60000 kPa, m1 = 0.02661	1599
60000 kPa, m1 = 0.02749	1599
60000 kPa, m1 = 0.02755	1599
60000 kPa, m1 = 0.02877	1599.1
60000 kPa, m1 = 0.02944	1599.2
80000 kPa, m1 = 0.02283	1632.1
80000 kPa, m1 = 0.0239	1632.1
80000 kPa, m1 = 0.02481	1632.2
80000 kPa, m1 = 0.02661	1632.3
80000 kPa, m1 = 0.02749	1632.4
80000 kPa, m1 = 0.02755	1632.4
80000 kPa, m1 = 0.02877	1632.5
80000 kPa, m1 = 0.02944	1632.5
100000 kPa, m1 = 0.02283	1665.2
100000 kPa, m1 = 0.0239	1665.3
100000 kPa, m1 = 0.02481	1665.3
100000 kPa, m1 = 0.02661	1665.5
100000 kPa, m1 = 0.02749	1665.5
100000 kPa, m1 = 0.02755	1665.5
100000 kPa, m1 = 0.02877	1665.6
100000 kPa, m1 = 0.02944	1665.6

From the NIST ThermoML archive (doi:10.1021/je500458e)
